Consider 18 molecules from patent US20050222383A1, “Prostasin substrates and inhibitors” (IRM LLC, priority 2004, published 2005).

Assay [1] concerns the target T1, prostasin (Homo sapiens, UniProt Q16651).
T1 construct: eliminate the N-terminal signal peptide domain and light chain and the C-terminal GPI signal domain; honeybee melittin signal peptide (21 aa) (N); made in house; host or cells: Sf9 insect cells, baculovirus (Bac-to-Bac, pFastBac1)
The assay can be described thus: Cation/anion inhibition of prostasin activity against Ac-KHYR-acc. It is filed as biochemical. The settings on record: read-out: Inhibition constants.

The target of assay [2] is T1, prostasin. The assay can be described thus: Prostasin assayed in tetrapeptide substrate libraries with a set concentration of sodium, calcium or zinc. Type of assay: biochemical. To be noted: for effect on substrate specificity profile / decrease in activity across the libraries: tetrapeptide substrate libraries; for decrease in activity across the libraries: set concentration of ion. As for the experimental part:
P1-P4-Fluorogenic substrate libraries were synthesized as previously described (Wang et al, J. Biol. Chem., 278: 15800-15808, 2003). Prostasin was diluted in assay buffer and added to the library plates. In the two-position fixed tetrapeptide substrate library, the final substrate concentration was approximately 0.25 μM/substrate/well with a total of 361 substrates per well. Each variable position had one of 19 amino acids with cysteine excluded and methionine replaced by its isostere norleucine.
Further, prostasin was assayed in the tetrapeptide substrate libraries with a set concentration of sodium, calcium or zinc to determine the effect of each on overall substrate specificity.

Assay [3] has as its target T1, prostasin. The assay can be described thus: Assays with transition metals, prostasin activity with Ac-KHYR-acmc. Type of assay: biochemical. To be noted: for enhancement effect: increase of enzymatic activity: Ac-KHYR-acmc substrate, sub inhibitory metal ion concentrations; for increases in IC50 values: assays with KHYR substrate. As for the experimental part:
(§1) Proteolytic activity of the purified prostasin was monitored by measuring the accumulation of the fluorophore 7-amino-3-carbamoylmethyl-4-methylcoumarin (acmc) or 7-amino-4-carbamoylmethylcoumarin (acc) produced by the cleavage of the tetrapeptide substrate Ac-KHYR-acmc, Ac-KHYR-acc or Ac-PRLR-acmc in assay buffer (50 mM Tris-Cl pH 9.0, 0.25% CHAPS; 10 mM CHES pH 9.0 (37° C.), 0.25% CHAPS; or 10 mM Hepes pH 7.4 (37° C.), 0.25% CHAPS) at 37° C. Assays were run in 96 or 384-well black microtiter plates. Data was collected with a Gemini XS plate reader (Molecular Devices) at λex=380 nm and λem=450 nm.

Assay [4] addresses T1, prostasin. The assay can be described thus: Michaelis-Menten kinetics of KHYR-acmc and PRLR-acmc in the presence of zinc. Type of assay: biochemical. The procedure:
as §1
The effect of zinc on the Michelis-Menten kinetics of KHYR-acmc and PRLR-acmc was measured in the presence of 20 μM zinc(II). […] The kcat of KHYR-acmc was 2.7 fold higher and the kcat of PRLR-acmc was 1.6 fold lower. These changes translated into a 30-fold increase in specificity for KHYR over PRLR in the presence of zinc.

In assay [5] the target is T1, prostasin. The assay can be described thus: Inhibition assays of macromolecular inhibitors, prostasin activity against Ac-KHYR-acmc. Type of assay: biochemical. To be noted: Ac-KHYR-acmc substrate, Tris-CHAPS buffer; read-out: classical inhibition constants (Ki). As for the experimental part:
as §1
The inhibition constants of macromolecular inhibitors were calculated for prostasin. Prostasin activity against Ac-KHYR-acmc was measured in Tris-CHAPS buffer, as in “Enzyme Assays,” in the presence of 10 μM-170 pM aprotinin and soybean trypsin inhibitor (SBTI), 1 μM-17 pM α1-antitrypsin, and 200 nM-3.3 pM α1-antichymotrypsin. Rates were plotted in Prism (GraphPad) and classical inhibition constants (Ki) were calculated using the results of non-linear regression.

Assay [6] concerns Xenopus kidney epithelial cell line. To be noted: exposure of the apical membrane; cited from earlier work.
The mark [7] stands for this setting: Ac-KHYR-acc substrate, CHES-CHAPS buffer, 37° C.
Where [8] appears, read: in the presence of 20 μM zinc(II).

T1 sequence (Q16651 45-322 limits assumed): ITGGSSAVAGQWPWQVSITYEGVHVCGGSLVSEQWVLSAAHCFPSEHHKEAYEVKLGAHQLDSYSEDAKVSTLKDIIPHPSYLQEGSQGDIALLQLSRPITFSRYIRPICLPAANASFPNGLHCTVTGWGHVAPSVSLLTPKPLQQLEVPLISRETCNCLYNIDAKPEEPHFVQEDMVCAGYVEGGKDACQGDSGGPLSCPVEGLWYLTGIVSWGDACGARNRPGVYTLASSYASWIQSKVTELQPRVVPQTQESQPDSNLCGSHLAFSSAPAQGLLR

`[Ca+2].[Cl-].[Cl-]` [CaCl2]: the Ki on prostasin [1] (setting [7]) came out at 260 µM. `[Cl-].[Cl-].[Co+2]` [CoCl2]: at prostasin [1], the Ki worked out at 5 µM. Consider `[Cl-].[K+]` [KCl], for which the Ki at prostasin [1] (setting [7]) was found to be 5800 µM.

Consider `[Cl-].[Li+]` [LiCl], for which the Ki at prostasin [1] (setting [7]) was found to be 2400 µM.

For the molecule `[Cl-].[Cl-].[Mg+2]` [MgCl2], at prostasin [1] (setting [7]), the Ki amounted to 390 µM. In the case of `[Cl-].[Na+]` [NaCl], the Ki at prostasin [1] turned out to be 5300 µM. For the molecule `[F-].[Na+]` [NaF], the Ki at prostasin [1] (setting [7]) came to 4200 µM. Still for that read-out and setting: then `[I-].[Na+]` [NaI], with 4500 µM. For the molecule `[Ca+2]` [calcium], at prostasin [2], the “effect on substrate specificity profile” value is listed as “Neither sodium nor calcium changed the substrate profile” and the “decrease in activity across the libraries” value is 25-35%. On to `[Co+2]` [cobalt], for which, at prostasin [3], the “enhancement effect: increase of enzymatic activity” value was “No enhancement in activity” and the “increases in IC50 values” worked out at 10 fold. With `[Cu+2]` [copper], the “increases in IC50 values” on prostasin [3] is 25 fold.

On to `[Ni+2]` [nickel], for which, on prostasin [3], the “enhancement effect: increase of enzymatic activity” value worked out at 1.4 fold and the “increases in IC50 values” is 100 fold. As to `[Na+]` [sodium], on prostasin [2], the “effect on substrate specificity profile” value is “Neither sodium nor calcium changed the substrate profile” and the “decrease in activity across the libraries” value is listed as 50-60%. For the molecule `[Zn+2]` [zinc], the “increases in IC50 values” at prostasin [3] is 200 fold. Besides, at prostasin [2] (P1-P3 library), the “relative increase in the activity of substrates with arginine in P1 and histidine in P3” value is given as “three fold relative increase”. The “effect on substrate specificity profile” value at prostasin [2] is given as “did not alter the specificity profiles”. Regarding Ac-KHYR-acmc, on prostasin [4] (setting [8]), the “decrease in the Km” value came to 4 fold and the kcat higher worked out at 2.7 fold. Also, on prostasin [4] (in the presence of zinc), the “increase in specificity for KHYR over PRLR” value is 30 fold. Ac-PRLR-acmc: at prostasin [4] (setting [8]), the “increase in the Km” value is on record as 2 fold and the kcat lower was 1.6 fold. Regarding aprotinin, on prostasin [5], the Ki is 0.0025 µM. Further, in assay [6], the transepithelial sodium transport result is on record as “reduces transepithelial sodium transport”.

B1: α1-antichymotrypsin (protein, UniProt P01011 24-423, looked up)
Alpha-1-antichymotrypsin: HPNSPLDEENLTQENQDRGTHVDLGLASANVDFAFSLYKQLVLKAPDKNVIFSPLSISTALAFLSLGAHNTTLTEILKGLKFNLTETSEAEIHQSFQHLLRTLNQSSDELQLSMGNAMFVKEQLSLLDRFTEDAKRLYGSEAFATDFQDSAAAKKLINDYVKNGTRGKITDLIKDLDSQTMMVLVNYIFFKAKWEMPFDPQDTHQSRFYLSKKKWVMVPMMSLHHLTIPYFRDEELSCTVVELKYTGNASALFILPDQDKMEEVEAMLLPETLKRWRDSLEFREIGELYLPKFSISRDYNLNDILLQLGIEEAFTSKADLSGITGARNLAVSQVVHKAVLDVFEEGTEASAATAVKITLLSALVETRTIVRFNRPFLMIIVPTDTQNIFFMSKVTNPKQA
Take B1: the Ki with prostasin [5] was greater than 0.2 µM.
